Experimental data as given in publication PMC10910545, “The crystal structure of mycothiol disulfide reductase (Mtr) provides mechanistic insight into the specific low-molecular-weight thiol reductase activity of Actinobacteria” (Acta Crystallographica. Section D, Structural Biology, 2024).

Assays:
[1] = target: T1, Mtr Ms (mycothiol disulfide reductase) (Mycolicibacterium smegmatis, UniProt A0QVL0); test: UV-Vis A465/A280 ratio and yellow crystals; type: binding; conditions: copurified cofactor; FAD not modelled in the 4.7 A structure
T1 construct: gene MSMEG_2611; full-length, 461 residues, pET-22b(+) NdeI/XhoI, E. coli BL21(DE3); homodimer about 100 kDa

[2] = target: T2, Mtr Re (mycothiol disulfide reductase) (Rhodococcus erythropolis, UniProt C0ZY75); test: X-ray crystal structure, […] A; type: binding; conditions: copurified cofactor, one FAD per monomer; redox-active Cys39-Cys44 on si face
T2 construct: full-length, 458 residues, pET-22b(+) NdeI/XhoI, E. coli BL21(DE3); homodimer about 100 kDa
T2 sequence (C0ZY75 entry or part of it): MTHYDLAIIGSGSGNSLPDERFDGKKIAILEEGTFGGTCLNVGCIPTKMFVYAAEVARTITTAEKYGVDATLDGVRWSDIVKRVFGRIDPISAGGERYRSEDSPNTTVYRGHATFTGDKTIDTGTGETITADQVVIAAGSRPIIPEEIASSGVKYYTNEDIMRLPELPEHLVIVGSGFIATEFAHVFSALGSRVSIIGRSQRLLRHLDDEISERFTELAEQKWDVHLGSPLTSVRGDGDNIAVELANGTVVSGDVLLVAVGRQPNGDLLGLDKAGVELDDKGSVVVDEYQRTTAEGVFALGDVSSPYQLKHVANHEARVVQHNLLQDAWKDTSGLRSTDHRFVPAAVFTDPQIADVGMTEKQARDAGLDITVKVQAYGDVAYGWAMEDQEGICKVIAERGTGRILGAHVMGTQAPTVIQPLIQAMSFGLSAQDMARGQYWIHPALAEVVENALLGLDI

T1 sequence (A0QVL0 1-461): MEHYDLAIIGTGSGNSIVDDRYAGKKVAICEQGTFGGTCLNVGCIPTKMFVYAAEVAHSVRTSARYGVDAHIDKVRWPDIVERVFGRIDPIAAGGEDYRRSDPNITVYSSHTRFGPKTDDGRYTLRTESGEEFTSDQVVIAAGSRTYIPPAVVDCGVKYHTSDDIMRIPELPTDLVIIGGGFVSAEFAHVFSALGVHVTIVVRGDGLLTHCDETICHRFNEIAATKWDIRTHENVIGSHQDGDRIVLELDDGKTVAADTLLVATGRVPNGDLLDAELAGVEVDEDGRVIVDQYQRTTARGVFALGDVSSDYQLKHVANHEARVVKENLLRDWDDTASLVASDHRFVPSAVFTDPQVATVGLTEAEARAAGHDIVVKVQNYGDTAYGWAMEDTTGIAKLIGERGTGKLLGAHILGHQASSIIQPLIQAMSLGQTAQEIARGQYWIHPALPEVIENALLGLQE

## Cc1cc2nc3c(=O)[nH]c(=O)nc-3n(C[C@H](O)[C@H](O)[C@H](O)COP(=O)(O)OP(=O)(O)OC[C@H]3O[C@@H](n4cnc5c(N)ncnc54)[C@H](O)[C@@H]3O)c2cc1C [FAD]
[1]
  UV-Vis A465/A280 ratio and yellow crystals: support the presence of FAD in both proteins
[2]
  X-ray crystal structure, 2.9 A: In Mtr Re , both monomers show strong density for the FAD cofactor
